What was measured:
Assay in all cases: Post-emergence efficacy, Method A
Assay type in all cases: in vivo
[1] = tested on: Amaranthus palmeri (AMAPA); settings: Application rate 500 g/Ha, evaluated after 13 days; for Control of weed species AMAPA after post-emergence application (100=total damage to plant; 0=no damage to plant): Method A; for Control of weed species after post-emergence application, AMAPA: 100=total damage to plant, 0=no damage
Experimental: (§1) Seeds of a variety of test species were sown in standard soil in pots. After cultivation for 14 days (post-emergence) under controlled conditions in a glasshouse (at 24/16° C., day/night; 14 hours light; 65% humidity), the plants were sprayed with an aqueous spray solution derived from the dissolution of the technical active ingredient formula (I) in a small amount of acetone and a special solvent and emulsifier mixture referred to as IF50 (11.12% Emulsogen EL360 TM+44.44% N-methylpyrrolidone+44.44% Dowanol DPM glycol ether), to create a 50 g/l solution which was then diluted to required concentration using 0.25% or 1% Empicol ESC70 (Sodium lauryl ether sulphate)+1% ammonium sulphate as diluent.
(§2) The test plants were then grown in a glasshouse under controlled conditions (at 24/16° C., day/night; 14 hours light; 65% humidity) and watered twice daily. After 13 days the test was evaluated (100=total damage to plant; 0=no damage to plant).
(§3) Ipomoea hederacea (IPOHE), Euphorbia heterophylla (EPHHL), Chenopodium album (CHEAL), Amaranthus palmeri (AMAPA), Lolium perenne (LOLPE), Digitaria sanguinalis (DIGSA), Eleusine indica (ELEIN), Echinochloa crus-galli (ECHCG), Setaria faberi (SETFA)

[2] = tested on: Chenopodium album (CHEAL); settings: Application rate 500 g/Ha, evaluated after 13 days; for Control of weed species CHEAL after post-emergence application (100=total damage to plant; 0=no damage to plant): Method A; for Control of weed species after post-emergence application, CHEAL: 100=total damage to plant, 0=no damage
Experimental: as §1, §2, §3

[3] = tested on: Digitaria sanguinalis (DIGSA); settings: Application rate 500 g/Ha, evaluated after 13 days; for Control of weed species DIGSA after post-emergence application (100=total damage to plant; 0=no damage to plant): Method A; for Control of weed species after post-emergence application, DIGSA: 100=total damage to plant, 0=no damage
Experimental: as §1, §2, §3

[4] = tested on: Echinochloa crus-galli (ECHCG); settings: Application rate 500 g/Ha, evaluated after 13 days; for Control of weed species ECHCG after post-emergence application (100=total damage to plant; 0=no damage to plant): Method A; for Control of weed species after post-emergence application, ECHCG: 100=total damage to plant, 0=no damage
Experimental: as §1, §2, §3

[5] = tested on: Eleusine indica (ELEIN); settings: Application rate 500 g/Ha, evaluated after 13 days; for Control of weed species ELEIN after post-emergence application (100=total damage to plant; 0=no damage to plant): Method A; for Control of weed species after post-emergence application, ELEIN: 100=total damage to plant, 0=no damage
Experimental: as §1, §2, §3

[6] = tested on: Euphorbia heterophylla (EPHHL); settings: Application rate 500 g/Ha, evaluated after 13 days; for Control of weed species EPHHL after post-emergence application (100=total damage to plant; 0=no damage to plant): Method A; for Control of weed species after post-emergence application, EPHHL: 100=total damage to plant, 0=no damage
Experimental: as §1, §2, §3

[7] = tested on: Setaria faberi (SETFA); settings: Application rate 500 g/Ha, evaluated after 13 days; for Control of weed species SETFA after post-emergence application (100=total damage to plant; 0=no damage to plant): Method A; for Control of weed species after post-emergence application, SETFA: 100=total damage to plant, 0=no damage
Experimental: as §1, §2, §3

Compound | Control of weed species AMAPA after post-emergence application (100=total damage to plant; 0=no damage to plant) [1] | Control of weed species CHEAL after post-emergence application (100=total damage to plant; 0=no damage to plant) [2] | Control of weed species DIGSA after post-emergence application (100=total damage to plant; 0=no damage to plant) [3] | Control of weed species ECHCG after post-emergence application (100=total damage to plant; 0=no damage to plant) [4] | Control of weed species ELEIN after post-emergence application (100=total damage to plant; 0=no damage to plant) [5] | Control of weed species EPHHL after post-emergence application (100=total damage to plant; 0=no damage to plant) [6] | Control of weed species SETFA after post-emergence application (100=total damage to plant; 0=no damage to plant) [7] | Control of weed species after post-emergence application, AMAPA [1] | Control of weed species after post-emergence application, CHEAL [2] | Control of weed species after post-emergence application, DIGSA [3] | Control of weed species after post-emergence application, ECHCG [4] | Control of weed species after post-emergence application, ELEIN [5] | Control of weed species after post-emergence application, EPHHL [6] | Control of weed species after post-emergence application, SETFA [7]
CCOC(=O)CC[n+]1ccc(-c2ncccn2)cn1.O=C([O-])C(F)(F)F [Compound A82] | 70 | 80 | 30 | 30 | 60 | 40 | 60 |  |  |  |  |  |  | 
O=C(O)CC[n+]1ccc(-c2ncccc2C(F)(F)F)cn1.O=C([O-])C(F)(F)F [Compound A128] | 30 | 10 | 30 | 30 | 50 | 0 | 30 |  |  |  |  |  |  | 
O=C(O)CC[n+]1ccc(-c2ccnc(O)n2)cn1.O=C([O-])C(F)(F)F [Compound A86] | 30 | 40 | 30 | 20 | 10 | 50 | 40 |  |  |  |  |  |  | 
CC(C)OC(=O)CC[n+]1ccc(-c2ncccn2)cn1.O=C([O-])C(F)(F)F [Compound A81, isopropyl 3-(4-pyrimidin-2-ylpyridazin-1-ium-1-yl)propanoate 2,2,2-trifluoroacetate] | 100 | 90 | 100 | 90 | 80 | 100 | 90 |  |  |  |  |  |  | 
CC(C(=O)OC(C)(C)C)[n+]1ccc(-c2ncccn2)cn1.O=C([O-])C(F)(F)F (centres unmarked) [Compound A193] |  |  |  |  |  |  |  | 70 | 60 | 30 | 10 | 30 | 60 | 10
Nc1cc(-c2cc[n+](CCC(=O)O)nc2)ccn1.O=C([O-])C(F)(F)F [Compound A210] |  |  |  |  |  |  |  | 70 | 10 | 60 | 10 | 20 | 10 | 30
Nc1cc(-c2cc[n+](CCC(=O)O)nc2)nc(N)n1.O=C([O-])C(F)(F)F [Compound A188] |  |  |  |  |  |  |  | 90 | 50 | 40 | 50 | 20 | 30 | 30
O=C(O)CC[n+]1ccc(-c2ncccc2Cl)cn1.O=C([O-])C(F)(F)F [Compound A149] | 30 | 40 | 50 | 50 | 60 | 30 | 40 |  |  |  |  |  |  | 
Cc1n[n+](CCC(=O)O)ccc1-c1ccccn1.O=C([O-])C(F)(F)F [Compound A145] | 10 | 10 | 10 | 0 | 0 | 10 | 0 |  |  |  |  |  |  | 
O=C(O)C(O)C[n+]1ccc(-c2ccncn2)cn1.O=C([O-])C(F)(F)F (centres unmarked) [Compound A190] |  |  |  |  |  |  |  | 100 | 80 | 60 | 60 | 70 | 80 | 40
Cc1c[n+](CCC(=O)O)ncc1-c1ncccn1.O=C([O-])C(F)(F)F [Compound A153] |  |  |  |  |  |  |  | 90 | 60 | 20 | 40 | 20 | 40 | 20
